The values that follow come from US10004701B2, “Methods and compositions for treating infection” (UNIVERSITY OF ROCHESTER, priority 2012, dated 2018).

Common to all, as to experiment: AK assay 384-well format, Prestwick library screening
One assay relates to P. aeruginosa. In kind it is cell-based, Pseudomonas aeruginosa. The following applies: 50 μM final drug concentration; for fold induction at 50 µM: Pseudomonas aeruginosa, 3 h.
For another assay, the system named is E. coli. In kind it is cell-based, Escherichia coli. The following applies: for fold induction at 50 µM: Escherichia coli, 3 h.
A further assay deals with E. faecium. In kind it is cell-based, Enterococcus faecium. The following applies: 50 μM final drug concentration; for fold induction at 50 µM: Enterococcus faecium, 3 h.
The next assay concerns E. cloacae. In kind it is cell-based, Enterobacter cloacae. The settings on record: 50 μM final drug concentration; for fold induction at 50 µM: Enterobacter cloacae, 3 h.
The subject of a further assay is K. pneumoniae. In kind it is cell-based, Klebsiella pneumoniae. The settings on record: 50 μM final drug concentration; for fold induction at 50 µM: Klebsiella pneumoniae, 3 h.
The test system of assay [1] is A. baumannii strain 98-37-09. In kind it is cell-based, Acinetobacter baumannii. The settings on record: 50 μM final drug concentration; for fold induction at 50 µM: Acinetobacter baumannii, 983709, 3 h.
Assay [2] deals with S. aureus strain USA300-0114. In kind it is cell-based, Staphylococcus aureus. The following applies: 50 μM final drug concentration; for fold induction at 50 µM: Staphylococcus aureus, USA300, 3 h.
Where [3] appears, read: cutoff for positive-scoring molecules 3-fold increase.

Structures can show the parent of a compound that is named as a salt. Where two headings read alike, the source gives them in different places.

As to `COc1ccc2c(c1OC)C(=O)O[C@@H]2[C@H]1c2cc3c(cc2CCN1C)OCO3` [Hydrastine hydrochloride], the fold induction at 50 µM stood at 0.9 in the assay with P. aeruginosa (planktonic P. aeruginosa, […], read-out: AK-based Prestwick Library Screening Results, P. aeruginosa (increase in extracellular AK activity)); 0.9 in the assay with E. coli (planktonic E. coli, 50 μM final drug concentration, […], read-out: AK-based Prestwick Library Screening Results, E. coli (increase in extracellular AK activity)); 1 with E. faecium (planktonic E. faecium, […], read-out: AK-based Prestwick Library Screening Results, E. faecium (increase in extracellular AK activity)); 0.9 with E. cloacae (planktonic E. cloacae, […], read-out: AK-based Prestwick Library Screening Results, E. cloacae (increase in extracellular AK activity)); 0.8 in the assay on K. pneumoniae (planktonic K. pneumoniae, […], read-out: AK-based Prestwick Library Screening Results, K. pneumoniae (increase in extracellular AK activity)); 1 in assay [1] (planktonic A. baumannii, […], read-out: AK-based Prestwick Library Screening Results, A. baumannii (increase in extracellular AK activity)). Also, the fold induction at 50 µM in assay [2] (planktonic S. aureus, […], read-out: AK-based Prestwick Library Screening Results, S. aureus (increase in extracellular AK activity)) was 0.6.
As for `CC[N+](C)(CC)CCC[n+]1c(-c2ccccc2)c2cc(N)ccc2c2ccc(N)cc21.[I-].[I-]` [Propidium iodide], the “AK-based Prestwick Library Screening Results, P. aeruginosa (fold increase in extracellular AK activity)” value with P. aeruginosa (setting [3]) was determined as 1.0. For the same compound, the “AK-based Prestwick Library Screening Results, E. coli (fold increase in extracellular AK activity)” value in the assay with E. coli (50 μM final drug concentration, cutoff for positive-scoring molecules 3-fold increase) stood at 1.3. Further, the “AK-based Prestwick Library Screening Results, E. faecium (fold increase in extracellular AK activity)” value in the assay on E. faecium (setting [3]) is reported as 0.8. For the same compound, the “AK-based Prestwick Library Screening Results, E. cloacae (fold increase in extracellular AK activity)” value with E. cloacae (setting [3]) amounted to 1.6. Also, the “AK-based Prestwick Library Screening Results, K. pneumoniae (fold increase in extracellular AK activity)” value with K. pneumoniae (setting [3]) is reported as 0.8. Also, the “AK-based Prestwick Library Screening Results, A. baumannii (fold increase in extracellular AK activity)” value in assay [1] (setting [3]) worked out at 1.1. Besides, in assay [2] (setting [3]), the “AK-based Prestwick Library Screening Results, S. aureus (fold increase in extracellular AK activity)” value amounted to 1.4.
Regarding `CCC1(c2ccccc2)C(=O)NCNC1=O` [Primidone], the fold induction at 50 µM in the assay on P. aeruginosa (cutoff for positive-scoring molecules 3-fold increase, read-out: AK-based Prestwick Library Screening Results, P. aeruginosa (fold increase in extracellular AK activity)) is 1.2; in the assay on E. coli (read-out: AK-based Prestwick Library Screening Results, E. coli (fold increase in extracellular AK activity)) it was 1; in the assay with E. faecium (cutoff for positive-scoring molecules 3-fold increase, read-out: AK-based Prestwick Library Screening Results, E. faecium (fold increase in extracellular AK activity)), 0.9; in the assay on E. cloacae (cutoff for positive-scoring molecules 3-fold increase, read-out: AK-based Prestwick Library Screening Results, E. cloacae (fold increase in extracellular AK activity)), 1.8; with K. pneumoniae (cutoff for positive-scoring molecules 3-fold increase, read-out: AK-based Prestwick Library Screening Results, K. pneumoniae (fold increase in extracellular AK activity)), 0.9; in assay [1] (cutoff for positive-scoring molecules 3-fold increase, read-out: AK-based Prestwick Library Screening Results, A. baumannii (fold increase in extracellular AK activity)), 1.2. Further, the fold induction at 50 µM in assay [2] (cutoff for positive-scoring molecules 3-fold increase, read-out: AK-based Prestwick Library Screening Results, S. aureus (fold increase in extracellular AK activity)) was determined as 1.3.
Take `O=c1[nH]c(=O)n([C@H]2C[C@H](O)[C@@H](CO)O2)cc1C(F)(F)F` [Trifluridine]: the fold induction at 50 µM turned out to be 0.6 with P. aeruginosa (planktonic P. aeruginosa, […], read-out: AK-based Prestwick library screening result, P. aeruginosa (fold increase in extracellular AK activity)); 0.9 in the assay on E. coli (planktonic E. coli, 50 μM final drug concentration, […], read-out: AK-based Prestwick library screening result, E. coli (fold increase in extracellular AK activity)); 0.9 in the assay with E. faecium (planktonic E. faecium, […], read-out: AK-based Prestwick library screening result, E. faecium (fold increase in extracellular AK activity)); 0.7 in the assay with E. cloacae (planktonic E. cloacae, […], read-out: AK-based Prestwick library screening result, E. cloacae (fold increase in extracellular AK activity)); 1.1 with K. pneumoniae (planktonic K. pneumoniae, […], read-out: AK-based Prestwick library screening result, K. pneumoniae (fold increase in extracellular AK activity)); 1.1 in assay [1] (planktonic A. baumannii, […], read-out: AK-based Prestwick library screening result, A. baumannii (fold increase in extracellular AK activity)). In assay [2] (planktonic S. aureus, […], read-out: AK-based Prestwick library screening result, S. aureus (fold increase in extracellular AK activity)), the fold induction at 50 µM was found to be 0.7.
Consider `CCN(CC)C(=O)c1ccc(O)c(OC)c1` [Ethamivan], for which the fold induction at 50 µM with P. aeruginosa (planktonic P. aeruginosa, cutoff for positive-scoring molecules 3-fold increase, read-out: AK-based Prestwick Library Screening Results, P. aeruginosa (increase in extracellular AK activity)) was 0.6; in the assay with E. coli (planktonic E. coli, 50 μM final drug concentration, cutoff for positive-scoring molecules 3-fold increase, read-out: AK-based Prestwick Library Screening Results, E. coli (increase in extracellular AK activity)) it was 0.6; with E. faecium (planktonic E. faecium, cutoff for positive-scoring molecules 3-fold increase, read-out: AK-based Prestwick Library Screening Results, E. faecium (increase in extracellular AK activity)) it was 1; in the assay with E. cloacae (planktonic E. cloacae, cutoff for positive-scoring molecules 3-fold increase, read-out: AK-based Prestwick Library Screening Results, E. cloacae (increase in extracellular AK activity)), 0.9; with K. pneumoniae (planktonic K. pneumoniae, cutoff for positive-scoring molecules 3-fold increase, read-out: AK-based Prestwick Library Screening Results, K. pneumoniae (increase in extracellular AK activity)) it was 0.6; in assay [1] (planktonic A. baumannii, cutoff for positive-scoring molecules 3-fold increase, read-out: AK-based Prestwick Library Screening Results, A. baumannii (increase in extracellular AK activity)) it was 0.9. Besides, the fold induction at 50 µM in assay [2] (planktonic S. aureus, cutoff for positive-scoring molecules 3-fold increase, read-out: AK-based Prestwick Library Screening Results, S. aureus (increase in extracellular AK activity)) came out at 0.6.
On to `Cc1c(NC(=O)c2cccnc2)c(=O)n(-c2ccccc2)n1C` [Nifenazone], for which the fold induction at 50 µM in the assay on P. aeruginosa (planktonic P. aeruginosa, 384-well, cutoff for positive-scoring molecules 3-fold increase, read-out: AK-based Prestwick Library Screening Results: P. aeruginosa (increase in extracellular AK activity)) came to 1.2; in the assay on E. coli (planktonic E. coli, 50 μM final drug concentration, 384-well, cutoff for positive-scoring molecules 3-fold increase, read-out: AK-based Prestwick Library Screening Results: E. coli (increase in extracellular AK activity)), 1.2; in the assay on E. faecium (planktonic E. faecium, 384-well, cutoff for positive-scoring molecules 3-fold increase, read-out: AK-based Prestwick Library Screening Results: E. faecium (increase in extracellular AK activity)), 1; with E. cloacae (planktonic E. cloacae, 384-well, cutoff for positive-scoring molecules 3-fold increase, read-out: AK-based Prestwick Library Screening Results: E. cloacae (increase in extracellular AK activity)), 1.2; in the assay with K. pneumoniae (planktonic K. pneumoniae, 384-well, cutoff for positive-scoring molecules 3-fold increase, read-out: AK-based Prestwick Library Screening Results: K. pneumoniae (increase in extracellular AK activity)), 1; in assay [1] (planktonic A. baumannii, 384-well, cutoff for positive-scoring molecules 3-fold increase, read-out: AK-based Prestwick Library Screening Results: A. baumannii (increase in extracellular AK activity)), 1.6. Besides, the fold induction at 50 µM in assay [2] (planktonic S. aureus, 384-well, cutoff for positive-scoring molecules 3-fold increase, read-out: AK-based Prestwick Library Screening Results: S. aureus (increase in extracellular AK activity)) is 1.3.
Regarding `NC(=O)CN1CCCC1=O` [Piracetam], the fold induction at 50 µM in the assay on P. aeruginosa (planktonic, cutoff for positive 3-fold increase, read-out: AK-based Prestwick Library Screening Results, P. aeruginosa (fold increase in extracellular AK activity)) worked out at 1.1; in the assay with E. coli (50 μM final drug concentration, planktonic, cutoff for positive 3-fold increase, read-out: AK-based Prestwick Library Screening Results, E. coli (fold increase in extracellular AK activity)) it was 1.1; in the assay on E. faecium (planktonic, cutoff for positive 3-fold increase, read-out: AK-based Prestwick Library Screening Results, E. faecium (fold increase in extracellular AK activity)), 0.9; in the assay on E. cloacae (planktonic, cutoff for positive 3-fold increase, read-out: AK-based Prestwick Library Screening Results, E. cloacae (fold increase in extracellular AK activity)), 1.4; in the assay on K. pneumoniae (planktonic, cutoff for positive 3-fold increase, read-out: AK-based Prestwick Library Screening Results, K. pneumoniae (fold increase in extracellular AK activity)), 1; in assay [1] (planktonic, cutoff for positive 3-fold increase, read-out: AK-based Prestwick Library Screening Results, A. baumannii (fold increase in extracellular AK activity)) it was 0.9. In assay [2] (planktonic, cutoff for positive 3-fold increase, read-out: AK-based Prestwick Library Screening Results, S. aureus (fold increase in extracellular AK activity)), the fold induction at 50 µM is 1.
